# Assay results from US20230111925A1, “FIBROTIC DISEASE MECHANISM AND THERAPEUTIC DRUG THEREFOR” (GUANGZHOU WOMEN AND CHILDREN'S MEDICAL CENTER, priority 2020, published 2023).
# Where a name gives a salt, the structure may show the parent alone.
# Key:
# [1] = tested on: DSS-induced mouse colitis; experiment: DSS-induced mouse colitis
# [2] = tested on: normal intestinal fibroblast CCD-18Co; experiment: Proliferation and apoptosis of normal intestinal fibroblast CCD-18Co; type: cell-based
# [3] = tested on: lung epithelial cells A549 infected with SEV; experiment: IFN-β induction in SeV-infected lung epithelial cells A549; type: cell-based; conditions: vs DMSO
# Text: Total RNA was extracted from cells, and the mRNA level of IFN-β was detected by fluorescence quantitative PCR. The level of IFN-β in the supernatants was detected by ELISA. […] The cells were collected and total RNA was collected from the cells, and the mRNA level of IFN-β was detected by fluorescence quantitative PCR.
# [4] = tested on: RNA virus VSV; type: in vivo, mice; conditions: Dipyridamole 30 mg/kg i.p. from day -3; VSV 10^8 PFU/g tail vein day 0 and day 4
# [5] = tested on: CCD-18Co cells stimulated by TGF-β and TNF-α; experiment: Intestinal interstitial fibrosis model in CCD-18Co cell line (Western blot); type: cell-based; conditions: 0.5 μM ITI-214 added one hour in advance; TGF-β 10 ng/ml and TNF-α 40 ng/ml, 48 hours
# [6] = Icariin 50 mg/kg i.p. twice a day days 4-7, vs model group
# [7] = PF-04447943 3 mg/kg i.p. twice a day days 4-12, vs model group
# [8] = A549, SEV MOI=1, 0, 16 and 24 hours
# [9] = Mardepodect hydrochloride 1 mg/kg i.p. twice a day days 4-7, vs model group
# [10] = 10 mg/kg i.p. twice a day days 4-15, 2% DSS days 0-10
# [11] = 10 mg/kg i.p. twice a day days 4-15, 2% DSS days 0-10, vs model group
# [12] = Roflumilast 3 mg/kg i.p. twice a day days 4-9, vs model group
# [13] = 5 mg/kg i.p. twice a day days 4-15, 2% DSS days 0-10, vs model group
# [14] = ITI214 3 mg/kg i.p. twice a day days 4-8, 2% DSS days 0-7
# [15] = PF-05085727 3 mg/kg i.p. twice a day days 4-9
# [16] = PF-05085727 3 mg/kg i.p. twice a day days 4-9, vs model group
compound,measurement,setting,value
Icariin,weight loss of colitis,"[1]; Icariin 50 mg/kg i.p. twice a day days 4-7, 2% DSS days 0-7, from day 6",significantly inhibited
same,"colonic tissue structure, epithelial structure (H&E)",[1]; [6],significantly restore
same,fibrosis (colon H&E),[1]; [6],reduced
same,infiltration of inflammatory cells (colon H&E),[1]; [6],decreased
C[C@@H]1CN(Cc2ncccn2)C[C@H]1c1nc2c(cnn2C2CCOCC2)c(=O)[nH]1 [PF-04447943],colon length,[1]; PF-04447943 3 mg/kg i.p. twice a day days 4-12,significantly improve
same,weight loss,"[1]; PF-04447943 3 mg/kg i.p. twice a day days 4-12, 2% DSS days 0-10, from day 6",significantly inhibited
same,survival rate,"[1]; PF-04447943 3 mg/kg i.p. twice a day days 4-12, 2% DSS days 0-10, model group 40%",100%
same,"disease activity index score, experimental colitis","[1]; PF-04447943 3 mg/kg i.p. twice a day days 4-12, from day 6",significantly inhibited
same,"colonic tissue structure, epithelial structure (H&E)",[1]; [7],significantly restore
same,fibrosis (colon H&E),[1]; [7],reduced
same,infiltration of inflammatory cells (colon H&E),[1]; [7],decreased
OCCN(CCO)c1nc(N2CCCCC2)c2nc(N(CCO)CCO)nc(N3CCCCC3)c2n1 [Dipyridamole],apoptosis of fibroblasts (flow early/late apoptosis analysis),"[2]; 20 μM DIP, 48 hours",promoted
same,proliferation of fibroblasts (crystal violet staining),"[2]; 20 μM DIP, 48 hours",inhibited
same,mRNA level of the type I interferon IFN-β (fluorescence quantitative PCR),"[3]; A549, PDE inhibitor 5 μM, SEV MOI=1, 24 hours",significantly up-regulate
same,mRNA level of IFN-β (fluorescence quantitative PCR),[3]; [8],significantly promoted
same,protein level of IFN-β in the supernatants (ELISA),[3]; [8],significantly promoted
same,infiltration of pulmonary inflammation in lung and alveolar injury (H&E staining of mouse lung),[4],significantly reduced
Cn1cc(-c2ccncc2)c(-c2ccc(OCc3ccc4ccccc4n3)cc2)n1 [Mardepodect hydrochloride],weight changes,"[1]; Mardepodect hydrochloride 1 mg/kg i.p. twice a day days 4-7, 2% DSS days 0-7",did not decrease the weight significantly
same,"colonic tissue structure, epithelial structure (H&E)",[1]; [9],significantly restore
same,fibrosis (colon H&E),[1]; [9],reduced
same,infiltration of inflammatory cells (colon H&E),[1]; [9],decreased
Cc1[nH]c(=O)c(C#N)cc1-c1ccncc1 [Milirinone],weight changes,[1]; [10],did not decrease significantly
same,"colonic tissue structure, epithelial structure (H&E)",[1]; [11],significantly restore
same,fibrosis (colon H&E),[1]; [11],reduced
same,infiltration of inflammatory cells (colon H&E),[1]; [11],decreased
O=C(Nc1c(Cl)cncc1Cl)c1ccc(OC(F)F)c(OCC2CC2)c1 [Roflumilast],weight changes,"[1]; Roflumilast 3 mg/kg i.p. twice a day days 4-9, 2% DSS days 0-7",did not decrease significantly
same,"colonic tissue structure, epithelial structure (H&E)",[1]; [12],significantly restore
same,fibrosis (colon H&E),[1]; [12],reduced
same,infiltration of inflammatory cells (colon H&E),[1]; [12],decreased
COc1ccc(C(=O)N2CCN(c3ccc4c(c3)CCC(=O)N4)CC2)cc1OC [Vesnarinone],weight changes,"[1]; 5 mg/kg i.p. twice a day days 4-15, 2% DSS days 0-10",did not decrease significantly
same,"colonic tissue structure, epithelial structure (H&E)",[1]; [13],significantly restore
same,fibrosis (colon H&E),[1]; [13],reduced
same,infiltration of inflammatory cells (colon H&E),[1]; [13],decreased
O=C1CCc2cc(OCCCCc3nnnn3C3CCCCC3)ccc2N1 [Cilostazol],weight changes,[1]; [10],did not decrease significantly
same,"colonic tissue structure, epithelial structure (H&E)",[1]; [11],significantly restore
same,fibrosis (colon H&E),[1]; [11],reduced
same,infiltration of inflammatory cells (colon H&E),[1]; [11],decreased
CN1C(=O)c2c(nn(Cc3ccc(-c4cccc(F)n4)cc3)c2Nc2ccccc2)N2C1=N[C@@H]1CCC[C@@H]12.O=P(O)(O)O [ITI214],apoptosis of fibroblasts (flow early/late apoptosis analysis),"[2]; 0.5 μM ITI-214, 48 hours",promoted
same,proliferation of fibroblasts,"[2]; 0.5 μM ITI-214, 48 hours",effectively inhibit
same,"protein expression levels of α-SMA, COL1A2 and FAP in cells (Western blot)",[5],inhibited
same,colon length,[1]; [14],significantly improved
same,"disease activity index score (DAI score), severity of colitis",[1]; [14],significantly reduced
same,fibrosis (colon H&E),[1]; [14],inhibits
same,infiltration of inflammatory cells (colon H&E),[1]; [14],reduces
same,structures of colon epithelium and lamina propria (H&E),[1]; [14],significantly restored
same,weight changes of mice,"[1]; ITI214 3 mg/kg i.p. twice a day days 4-8, 2% DSS days 0-7, day 7",significantly increased
same,survival rate,"[1]; ITI214 3 mg/kg i.p. twice a day days 4-8, 2% DSS days 0-7, model group 50%",80%
Cn1ncc(-c2nn(C)c3ncnc(N4CCC4)c23)c1-c1ccc(C(F)(F)F)cc1 [PF-05085727],colon length,[1]; [15],significantly improved
same,"disease activity index score, activity degree of the disease",[1]; [15],did not aggravate
same,weight changes,"[1]; PF-05085727 3 mg/kg i.p. twice a day days 4-9, 2% DSS days 0-7",did not decrease significantly
same,survival rate,"[1]; PF-05085727 3 mg/kg i.p. twice a day days 4-9, 2% DSS days 0-7, model group 40%",100%
same,"colonic tissue structure, epithelial structure (H&E)",[1]; [16],significantly restored
same,fibrosis (colon H&E),[1]; [16],reduced
same,inflammatory cells (colon H&E),[1]; [16],reduced
